According to patent US9603896B2, “Peptide compounds and methods of production and use thereof” (priority 2012, dated 2017):
Like-named read-outs stand apart in the source and are kept apart here. Square brackets hold non-standard residues; d marks the D form. Peptide text beside a SMILES is read from it. AEEA = NCCOCCOCC(=O)O

Legend:
[1] = test system: Pseudomonas aeruginosa ATCC® 27853™; assay type: cell-based; conditions: for Effects of Peptide Compounds on Pseudomonas aeruginosa ATCC ® 27853 ™: Table 6, 5 × 10^3 CFU/ml unless italicized = 1 × 10^5 CFU/ml
Experimental: (§1) The three peptide compounds BCC01-5RMP (SEQ ID NO:21), BCC02-5RMP (SEQ ID NO:22), and BCC03-5RMP (SEQ ID NO:23) were assayed for in vitro bactericidal activity against Pseudomonas aeruginosa, Escherichia coli, Salmonella typhimurium, and Acinetobacter baumannii. […] The CFU remaining at the end of 60 to 180 minute incubation was determined, and the data plotted as a log reduction in CFU/ml.
(§2) Tables 4-6 show the results of various peptides and peptide compounds against P. aeruginosa and E. coli strains. Tables 4 and 5 show the results of an investigation of the effects of peptide or peptide compounds BCC03-5RMP (SEQ ID NO:23), BCC03-MP (SEQ ID NO:24) and BCC03-5R (SEQ ID NO:20) against P. aeruginosa ATCC® strain 27853™ and E. coli ATCC® strain 25922™ (American Type Culture Collection, Manassas, Va.). […] Table 6 compares the activity of several other compounds, including the “5R” versions of BCC01, i.e., SEQ ID NO:18 (which comprises SEQ ID NO:1 with five additional arginines), the “5R” version of BCC02 (i.e., SEQ ID NO:19, which comprises SEQ ID NO:2 with five additional arginines), and BCC03-5RMP (SEQ ID NO:23), and BCC03-MP (SEQ ID NO:24, i.e., without the five additional R residues). The data generally indicate the superiority of BCC03-5RMP (SEQ ID NO:23) against E. coli, and the superiority of the 5R or 5RMP versions of the peptide over the “AEEA only” peptide against P. aeruginosa.
For FIGS. 10-13, in vitro bactericidal assays were performed using a starting inoculum of 1×10^6 CFU/ml of the bacterial suspension. The CFU remaining at the end of the 60-180 minute incubation was determined, and the data was plotted as log reduction in CFU/ml.
In particular, each of the test peptides (CAP37 peptides 120-146WR, 120-146WH, and 95-122 (SEQ ID NOs: 30, 31, and 26, respectively)) was used at 25, 12.5, 6.25, and 3.12 μM. Gentamicin was used at 4 μg/ml. 1×10^6/ml Acinetobacter baumannii ATCC® BAA-747″ or Pseudomonas aeruginosa ATCC® 27853™ (American Type Culture Collection, Manassas, Va.) were incubated with the peptides, negative buffer control (tryptone saline), and positive control gentamicin at pH 5.5 or 7.2. A 60 minute incubation was used for Acinetobacter baumannii ATCC® BAA747™, while a 180 minute incubation was used for Pseudomonas aeruginosa ATCC® 27853™. 50 μl aliquots were plated out on agar plates and incubated overnight. Colony forming units were counted after overnight incubation and CFU/ml calculated.
For FIG. 14, 1×10^6/ml Pseudomonas aeruginosa ATCC® 27853™ were incubated with each of the test peptides (CAP37 peptides 120-146WR, 120-146WH, 120-146QR, 120-146QH, 120-146QR-5RMP, and 120-146QH-5RMP (SEQ ID NOs: 30, 31, 28, 29, 32, and 33, respectively)) at 150, 75, and 37.5 μg/ml, or negative buffer control (tryptone saline), for 180 minutes at pH 5.5. 50 μl aliquots were plated out on agar plates and incubated overnight. Colony forming units were counted after overnight incubation and CFU/ml calculated.

[2] = test system: swine skin; assay: Swine full thickness excisional dermal wound model; assay type: in vivo; conditions: for Mean Wound Healing (%): topical 3 mg/ml, 0.20 ml per wound daily
Experimental: In this Example, peptide compounds of the presently disclosed and claimed inventive concept(s) were evaluated as to their activity on the dermal wound healing process in a clinically relevant swine full thickness excisional wound model. Three different peptide formulations (Group B, Peptide 95-122 (SEQ ID NO:26); Group C, Peptide 120-146WH (SEQ ID NO:31); and Group D, Peptide 120-146QH-5RMP (SEQ ID NO:33)) were each evaluated at the same concentration (3 mg/ml). Sterile saline served as the control (Group A).
Full thickness excisional wounds were induced on the dorsum of swine (N=3) using a 1.0 cm biopsy punch. Treatments were administered (0.20 ml) to each wound (N=6 wounds per group), and the wounds were dressed with standard occlusive dressing ([…]™, 3M Corporation, St. Paul, Minn.). Treatments were reapplied daily and dressings changed. Clinical wound healing observations and wound area (2 mm) measurements were performed on days 0, 3, 5, 7, 10, and 14 post-wounding. Wound area (2 mm) data were expressed as percentage (%) of wound healing. Animals were terminated on day 14 with wounds harvested and processed for histological evaluation. […] All peptide formulation treatment groups healed faster with greater rate of closure and re-epithelialization over time, as compared to the saline control (Group A).

[3] = test system: E. coli ATCC® strain 25922™; assay type: cell-based, Escherichia coli; design: Effects of Peptide Compounds on Escherichia coli ATCC ® 25922 ™: unit not given here; conditions: Table 6, 5 × 10^3 CFU/ml unless italicized = 1 × 10^5 CFU/ml
Experimental: as §1, §2

[4] = wounds harvested day 14, 3 mg/ml topical

In the case of `CC(C)C[C@H](NC(=O)[C@H](CCCNC(=N)N)NC(=O)CNC(=O)CNC(=O)[C@H](CO)NC(=O)[C@H](Cc1c[nH]cn1)NC(=O)[C@H](CCC(N)=O)NC(=O)[C@H](CO)NC(=O)CNC(=O)[C@H](Cc1c[nH]c2ccccc12)NC(=O)CNC(=O)[C@H](C)NC(=O)[C@@H](NC(=O)[C@H](CCC(N)=O)NC(=O)[C@H](CS)NC(=O)[C@H](CCCNC(=N)N)NC(=O)[C@@H](NC(=O)CNC(=O)[C@H](CCCNC(=N)N)NC(=O)[C@H](CCCNC(=N)N)NC(=O)[C@H](CCCNC(=N)N)NC(=O)[C@H](CCCNC(=N)N)NC(=O)COCCOCCNC(=O)COCCOCCN)[C@@H](C)O)C(C)C)C(=O)N[C@@H](CO)C(=O)N[C@@H](CCCNC(=N)N)C(=O)N[C@@H](Cc1ccccc1)C(=O)N1CCC[C@H]1C(=O)N[C@@H](CCCNC(=N)N)C(=O)N[C@@H](Cc1ccccc1)C(=O)N[C@H](C(=O)N[C@@H](CC(N)=O)C(=O)N[C@H](C(=O)N[C@@H](CCCNC(=N)N)C(=O)O)C(C)C)C(C)C` [120-146QH-5RMP] (H-[AEEA][AEEA]RRRRGTRCQVAGWGSQHSGGRLSRFPRFVNVR-OH), the “reduction in CFU (FIG. 14)” value ([1]; pH 5.5, 180 minutes, 75 μg/ml) is reported as ~6 log, the “Mean Wound Healing (%)” value ([2]; Day 0) is reported as 0.0% and the “Mean Wound Healing (%)” value ([2]; Day 3) is reported as 22.5%. The “Mean Wound Healing (%)” value ([2]; Day 5) was 34.1%, the “Mean Wound Healing (%)” value ([2]; Day 7) was 64.1% and the “Mean Wound Healing (%)” value ([2]; Day 10) was 93.7%. For the same compound, the “Mean Wound Healing (%)” value ([2]; Day 14) was 98.0%, the “histology: epidermal resurfacing and maturation vs saline control” value ([2]; day 14 post-wounding) was “greater extent of epidermal resurfacing and maturation of the epidermis” and the “dermal wound healing vs saline” value ([2]; topically at 3 mg/ml, over 14 days) was “accelerate dermal wound healing”. The “Histopathology Results, Mean Angiogenesis” value [2, 4] was 1.3, the “Histopathology Results, Mean Epithelization” value [2, 4] was 4.0 and the “Histopathology Results, Mean Granulation” value [2, 4] was 4.0. The “Histopathology Results, Mean Inflammation” value [2, 4] was 0.5.
For `CC[C@H](C)[C@H](NC(=O)[C@H](CC(C)C)NC(=O)[C@H](C)NC(=O)CNC(=O)CNC(=O)[C@H](CS)NC(=O)[C@H](Cc1ccccc1)NC(=O)[C@H](Cc1c[nH]cn1)NC(=O)[C@H](CCCNC(=N)N)NC(=O)CNC(=O)[C@H](CCC(N)=O)NC(=O)[C@H](CC(N)=O)NC(=O)COCCOCCNC(=O)COCCOCCN)C(=O)N[C@@H](Cc1c[nH]cn1)C(=O)N[C@@H](C)C(=O)N[C@@H](CCCNC(=N)N)C(=O)N[C@@H](Cc1ccccc1)C(=O)N[C@H](C(=O)N[C@@H](CCSC)C(=O)N[C@H](C(=O)N[C@@H](C)C(=O)N[C@@H](C)C(=O)N[C@@H](CO)C(=O)N[C@@H](CO)C(=O)N[C@@H](Cc1ccccc1)C(=O)N[C@@H](CCC(N)=O)C(=O)O)[C@@H](C)O)C(C)C` [BCC03-MP] (H-[AEEA][AEEA]NQGRHFCGGALIHARFVMTAASSFQ-OH; N-terminus and C-terminus assumed), the “Effects of Peptide Compounds on Pseudomonas aeruginosa ATCC ® 27853 ™” value ([1]; 6.25 μg/ml) was −38.2, the “Effects of Peptide Compounds on Pseudomonas aeruginosa ATCC ® 27853 ™” value ([1]; 12.5 μg/ml) was -45.6 and the “Effects of Peptide Compounds on Pseudomonas aeruginosa ATCC ® 27853 ™” value ([1]; 25 μg/ml) was −27.3. The “Effects of Peptide Compounds on Pseudomonas aeruginosa ATCC ® 27853 ™” value ([1]; 50 μg/ml) was −2.9, the “Effects of Peptide Compounds on Pseudomonas aeruginosa ATCC ® 27853 ™” value ([1]; 100 μg/ml) was 44.0 and the “Effects of Peptide Compounds on Pseudomonas aeruginosa ATCC ® 27853 ™” value ([1]; 200 μg/ml) was 74.4. For the same compound, the “Effects of Peptide Compounds on Pseudomonas aeruginosa ATCC ® 27853 ™” value ([1]; 400 μg/ml) was 92.8, the “Effects of Peptide Compounds on Escherichia coli ATCC ® 25922 ™” value (“Effects … on Escherichia coli ATCC ® 25922 ™” below) ([3]; 6.25 μg/ml) was 6.4 and the “Effects … on Escherichia coli ATCC ® 25922 ™” value ([3]; 12.5 μg/ml) was 21.8. For the same compound, the “Effects … on Escherichia coli ATCC ® 25922 ™” value ([3]; 25 μg/ml) was 27.2, the “Effects … on Escherichia coli ATCC ® 25922 ™” value ([3]; 50 μg/ml) was 24.6 and the “Effects … on Escherichia coli ATCC ® 25922 ™” value ([3]; 100 μg/ml) was 27.5. The “Effects … on Escherichia coli ATCC ® 25922 ™” value ([3]; 200 μg/ml) was 46.0 and the “Effects … on Escherichia coli ATCC ® 25922 ™” value ([3]; 400 μg/ml) was 58.2.
